Data from patent publication US6821980B1, “Substituted 5-benzyl-2,4-diaminopyrimidines” (Basilea Pharmaceutica AG, priority 1999, dated 2004).
pIC50: −log10 of the molar value. In brackets after ≈: the same amount, converted by molar mass. Like-named read-outs stand apart in the source and are kept apart here.

Columns and labels:
[1] = tested on: Streptococcus pneumoniae 1/1; assay: MIC against Streptococcus pneumoniae 1/1; assay type: cell-based
[2] = tested on: Staphylococcus aureus 101; assay: MIC against Staphylococcus aureus 101; assay type: cell-based; conditions: read-out: MIC Sa101
[3] = target: T1, purified DHFR of strain Sp1/1 of Streptococcus pneumoniae (Streptococcus pneumoniae serotype 4, UniProt Q54801); assay type: biochemical; conditions: IC50 against purified DHFR of strain Sp1/1
T1 sequence (Q54801 1-168 I100L): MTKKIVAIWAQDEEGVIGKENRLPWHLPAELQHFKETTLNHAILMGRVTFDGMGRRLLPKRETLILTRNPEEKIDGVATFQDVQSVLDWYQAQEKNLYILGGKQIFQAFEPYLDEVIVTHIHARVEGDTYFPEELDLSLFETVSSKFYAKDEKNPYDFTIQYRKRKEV

[4] = target: purified DHFR of strain 157/4696 of Staphylococcus aureus (Staphylococcus aureus, UniProt P13955); assay: biochemical
[5] = Table 2, Streptococcus pneumoniae 1/1, trimethoprim- and penicillin-resistant, serotype 6, clinical isolate, read-out: MIC Sp1/1
[6] = Table 2, Staphylococcus aureus 101, MRSA- and trimethoprim-resistant, clinical isolate

purified DHFR of strain 157/4696 of Staphylococcus aureus, sequence (P13955 whole entry): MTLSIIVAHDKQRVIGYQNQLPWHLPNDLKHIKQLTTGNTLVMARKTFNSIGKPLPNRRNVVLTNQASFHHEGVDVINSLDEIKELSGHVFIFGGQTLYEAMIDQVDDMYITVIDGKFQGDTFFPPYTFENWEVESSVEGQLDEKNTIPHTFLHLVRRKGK

`CCOc1cc(Cc2cnc(N)nc2N)cc(OS(=O)(=O)C(C)CC)c1-c1cccc(N)c1` (centres unmarked) [Example 14g, Butane-2-sulphonic acid 3′-amino-4-(2,4-diamino-pvrimidin-5-ylmethyl)-6-ethoxy-biphenyl-2-yl ester] showed an MIC ([1]; Table 1, Streptococcus pneumoniae 1/1, trimethoprim- and penicillin-resistant, serotype 6, clinical isolate, read-out: MIC Sp1/1) of 1 µg/mL (≈ 2.12 µM), an MIC ([2]; Table 1, Staphylococcus aureus 101, MRSA- and trimethoprim-resistant, clinical isolate) of 1 µg/mL (≈ 2.12 µM) and a pIC50 ([3]; Table 1) of 8.43. For the same compound, the pIC50 [4] was 7.52.

With `CCOc1cc(Cc2cnc(N)nc2N)cc(OS(=O)(=O)C2CC2)c1-c1ccc(CN2CCOCC2)c(N)c1` [Example 34-e, Cyclopropanesulphonic acid 3′-amino-4-(2,4-diamino-pyrimidin-5-ylmethyl)-6-ethoxy-4′-morpholin-4-ylmethyl-biphenyl-2-yl ester] the MIC [1, 5] was 4 µg/mL (≈ 7.21 µM), the MIC [2, 6] was 4 µg/mL (≈ 7.21 µM) and the pIC50 ([3]; Table 2) was 7.82. It also gave a pIC50 [4] of 6.85.

In the case of `CCOc1cc(Cc2cnc(N)nc2N)cc(OCC)c1-c1ccc2c(c1)OCCO2` [Example 02-x, 5-[4-(2,3-Dihydro-benzo[1,4]dioxin-6-yl)-3,5-diethoxy-benzyl]-pyrimidine-2,4-diamine], the MIC [1, 5] was 2 µg/mL (≈ 4.73 µM), the MIC [2, 6] was 8 µg/mL (≈ 18.9 µM) and the pIC50 ([3]; Table 2) was 7.12. The pIC50 [4] was 5.63.

For `CCOc1cc(Cc2cnc(N)nc2N)cc(OCC)c1-c1ccc(O)cc1` [Example 02-t, 4′-(2,4-Diamino-pyrimidin-5-ylmethyl)-2′,6′-diethoxy-biphenyl-4-ol], the MIC ([1]; Streptococcus pneumoniae, 1/1, read-out: MIC Sp1/1) was 4 µg/mL (≈ 10.5 µM), the MIC ([2]; Staphylococcus aureus, MRSA) was 8 µg/mL (≈ 21 µM) and the pIC50 ([3]; Table 2) was 7.09. For the same compound, the pIC50 [4] was 5.96.

For `CCOc1cc(Cc2cnc(N)nc2N)cc(OS(=O)(=O)C(C)CC)c1-c1ccc(CN2CCOCC2)c(N)c1` (centres unmarked) [Example 35-c, Butane-2-sulphonic acid 3′-amino-4-(2,4-diamino-pyrimidin-5-ylmethyl)-6-ethoxy-4′-morpholin-4-ylmethyl-biphenyl-2-yl ester], the MIC [1, 5] was 1 µg/mL (≈ 1.75 µM), the MIC [2, 6] was 2 µg/mL (≈ 3.5 µM) and the pIC50 ([3]; Table 2) was 8.34. It also gave a pIC50 [4] of 7.37.

For `CCOc1cc(Cc2cnc(N)nc2N)cc(OCCc2ccccn2)c1-c1ccc(O)cc1` [Example 08-g, 4′-(2,4-Diamino-pyrimidin-5-ylmethyl)-6′-ethoxy-2′-(2-pyridin-2-yl-ethoxy)-biphenyl-4-ol], the MIC [1, 5] was 4 µg/mL (≈ 8.74 µM), the MIC [2, 6] was 8 µg/mL (≈ 17.5 µM) and the pIC50 ([3]; Table 2) was 7.28. It also gave a pIC50 [4] of 5.89.

Work on `CCOc1cc(Cc2cnc(N)nc2N)cc(OS(=O)(=O)CC)c1-c1ccc2c(c1)OCO2` [Example 17-b, Ethanesulphonic acid 2-benzo[1.3]dioxol-5-yl-5-(2,4-diamino-Iyrimidin-5-ylmethyl)-3-ethoxy-phenyl ester] yielded an MIC [1, 5] of 2 µg/mL (≈ 4.23 µM), an MIC [2, 6] of 4 µg/mL (≈ 8.47 µM) and a pIC50 ([3]; Table 2) of 7.42. The pIC50 [4] was 6.43.

`CCOc1cc(Cc2cnc(N)nc2N)cc(OCC2(COC)CC2)c1-c1cccc(N)c1` [Example 07-c, 5-[3′-Amino-6-ethoxg-2-[(1-methoxymethyl-cyclopropyl)-methoxy]-biphenyl-4-yimethyl]-pyrimidine-2,4-diamine] gave an MIC [1, 5] of 4 µg/mL (≈ 8.9 µM), an MIC [2, 6] of 8 µg/mL (≈ 17.8 µM) and a pIC50 ([3]; Table 2) of 7.32. For the same compound, the pIC50 [4] was 5.66.

Work on `CCOc1cc(Cc2cnc(N)nc2N)cc(OS(=O)(=O)N(C)CC)c1-c1ccc(N)cc1` [Example 22-b, N-Ethyl-N-methyl-sulphamic acid 4′-amino-4-(2,4-diamino-pyrimidin-5-ylmethyl)-6-ethoxy-biphenyl-2-yl ester] yielded an MIC [1, 5] of 1 µg/mL (≈ 2.12 µM), an MIC [2, 6] of 1 µg/mL (≈ 2.12 µM) and a pIC50 ([3]; Table 2) of 8.64. It also gave a pIC50 [4] of 7.42.

`CCOc1cc(Cc2cnc(N)nc2N)cc(OCC)c1-c1ccc(OC)c(COC)c1` [Example 02-aa, 5-(2,6-Diethoxy-4′-methoxy-3′-methoxymethyl-biphenyl-4-ylmethyl)-pyrimidine-2,4-diamine] gave an MIC [1, 5] of 4 µg/mL (≈ 9.12 µM), an MIC [2, 6] of 8 µg/mL (≈ 18.2 µM) and a pIC50 ([3]; Table 2) of 7.22. It also gave a pIC50 [4] of 5.60.

With `CCOc1cc(Cc2cnc(N)nc2N)cc(OCC(C)C)c1-c1ccc(O)cc1` [Example 08-n, 4′-(2,4-Diamino-pyrimidin-5-ylmethyl)-6′-ethoxy-2′-isobutoxy-biphenyl-4-ol] the MIC [1, 5] was 2 µg/mL (≈ 4.9 µM), the MIC [2, 6] was 4 µg/mL (≈ 9.79 µM) and the pIC50 ([3]; Table 2) was 7.82. For the same compound, the pIC50 [4] was 5.92.

`CCOc1cc(Cc2cnc(N)nc2N)cc(OCC)c1-c1cccc(O)c1` [Example 05-d, 4′-(2,4-Diamino-pyrimidin-5-ylmethyl)-2′,6′-diethoxy-biphenyl-3-ol] showed an MIC [1, 5] of 2 µg/mL (≈ 5.26 µM), an MIC [2, 6] of 4 µg/mL (≈ 10.5 µM) and a pIC50 ([3]; Table 2) of 7.15. For the same compound, the pIC50 [4] was 5.51.

`CCOc1cc(Cc2cnc(N)nc2N)cc(OS(=O)(=O)C2CC2)c1-c1ccc(NC)cc1` [Example 34-b, Cyclopropanesulphonic acid 4-(2,4-diamino-Ryrimidin-5-ylmethyl)-6-ethoxy-4′-methylamino-biphenyl-2-yl ester] showed an MIC [1, 5] of 1 µg/mL (≈ 2.13 µM), an MIC [2, 6] of 2 µg/mL (≈ 4.26 µM) and a pIC50 ([3]; Table 2) of 7.96. For the same compound, the pIC50 [4] was 6.68.

In the case of `CCOc1cc(Cc2cnc(N)nc2N)cc(OS(=O)(=O)N2CCCC2)c1-c1ccc(N)cc1` [Example 22-c, Pyrrolidine-1-sulphonic acid 4′-amino-4-(2,4-diamino-Ryrimidin-5-ylmethyl)-6-ethoxy-biphenyl-2-yl ester], the MIC [1, 5] was 1 µg/mL (≈ 2.06 µM), the MIC [2, 6] was 1 µg/mL (≈ 2.06 µM) and the pIC50 ([3]; Table 2) was 8.48. It also gave a pIC50 [4] of 6.85.

Compound `CCOc1cc(Cc2cnc(N)nc2N)cc(OS(=O)(=O)N(C)C)c1-c1cccc(N)c1` [Example 19-a, Dimethyl-sulphamic acid 3′-amino-4-(2,4-diamino-pyrimidin-5-ylmethyl)-6-ethoxy-biphenyl-2-yl ester] has an MIC [1, 5] of 1 µg/mL (≈ 2.18 µM), an MIC [2, 6] of 1 µg/mL (≈ 2.18 µM) and a pIC50 ([3]; Table 2) of 8.21. For the same compound, the pIC50 [4] was 7.07.

Work on `CCOc1cc(Cc2cnc(N)nc2N)cc(OCC)c1-c1cnc(N2CCOCC2)nc1` [Example 04-k, 5-[3,5-Diethoxy-4-(2-morpholin-4-yl-pyrimidin-5-yl)-benzyl]-pyrimidine-2,4-diamine] yielded an MIC [1, 5] of 4 µg/mL (≈ 8.86 µM), an MIC [2, 6] of 8 µg/mL (≈ 17.7 µM) and a pIC50 ([3]; Table 2) of 7.02. The pIC50 [4] was 5.00.

In the case of `CCOc1cc(Cc2cnc(N)nc2N)cc(OS(C)(=O)=O)c1-c1cccc(N)c1` [Example 14-a, Methanesulphonic acid 3′-amino-4-(2,4-diamino-gyrimidin-5-ylmethyl)-6-ethoxy-biphenyl-2-yl ester], the MIC [1, 5] was 4 µg/mL (≈ 9.31 µM), the MIC [2, 6] was 8 µg/mL (≈ 18.6 µM) and the pIC50 ([3]; Table 2) was 7.64. The pIC50 [4] was 6.46.

Compound `CCOc1cc(Cc2cnc(N)nc2N)cc(OS(=O)(=O)N(C)C)c1-c1ccc2[nH]ccc2c1` [Example 43-d, Dimethylsulphamic acid 5-(2,4-diamino-pyrimidin-5-ylmethyl)-3-ethoxy-2-(1H-indol-5-yl)-phenyl ester] has an MIC [1, 5] of 1 µg/mL (≈ 2.07 µM), an MIC [2, 6] of 1 µg/mL (≈ 2.07 µM) and a pIC50 ([3]; Table 2) of 7.38. The pIC50 [4] was 6.74.

`CCOc1cc(Cc2cnc(N)nc2N)cc(OS(=O)(=O)CC)c1-c1ccc(O)cc1` [Example 15-b, Ethanesulphonic acid 4-(2,4-diamino-pyrimidin-5-ylmethyl)-6-ethoxy-4′-hydroxy-biphenyl-2-yl ester] was tested, and the MIC [1, 5] was 2 µg/mL (≈ 4.5 µM), the MIC [2, 6] was 4 µg/mL (≈ 9 µM) and the pIC50 ([3]; Table 2) was 7.64. The pIC50 [4] was 6.74.

`CCOc1cc(Cc2cnc(N)nc2N)cc(OC(C)C)c1-c1ccc(OC)cc1` [Example 09-f, 5-(2-Ethoxy-6-isopropopy-4′-methoxy-biphenyl-4-ylmethyl)-pyrimidine-2,4-diamine] showed an MIC [1, 5] of 8 µg/mL (≈ 19.6 µM), an MIC [2, 6] of 8 µg/mL (≈ 19.6 µM) and a pIC50 ([3]; Table 2) of 6.85. The pIC50 [4] was 5.72.

With `CCOc1cc(Cc2cnc(N)nc2N)cc(OCC(C)(C)COC)c1-c1ccc(OC)cc1` [Example 09-a, 5-[6-Ethoxy-4′-methoxy-2-(3-methoxy-2,2-dimethyl-propoxy)-biphenyl-4-ylmethyl]-pyrimidine-2,4-diamine] the MIC [1, 5] was 4 µg/mL (≈ 8.57 µM), the MIC [2, 6] was 8 µg/mL (≈ 17.1 µM) and the pIC50 ([3]; Table 2) was 7.05. It also gave a pIC50 [4] of 5.51.

`CCOc1cc(Cc2cnc(N)nc2N)cc(OS(=O)(=O)N(C)C2CC2)c1-c1ccc(O)cc1` [Example 20-f, N-Cyclopropld-N-methyl-sulphamic acid 4-(2,4-diamino-pyrimidin-5-ylmethyl)-6-ethoxy-4′-hydroxy-biphenyl-2-yl ester] gave an MIC [1, 5] of 1 µg/mL (≈ 2.06 µM), an MIC [2, 6] of 1 µg/mL (≈ 2.06 µM) and a pIC50 ([3]; Table 2) of 8.01. For the same compound, the pIC50 [4] was 6.85.

`CCOc1cc(Cc2cnc(N)nc2N)cc(OCC2CC2)c1-c1ccc(N)cc1` [Example 13-, 5-(4′-Amino-2-cyclopropylmethoxy-6-ethoxy-biphenyl-4-ylmethyl)-pyrimidine-2,4-diamine] was tested, and the MIC [1, 5] was 2 µg/mL (≈ 4.93 µM), the MIC [2, 6] was 8 µg/mL (≈ 19.7 µM) and the pIC50 ([3]; Table 2) was 7.80. It also gave a pIC50 [4] of 5.85.

For `CCOc1cc(Cc2cnc(N)nc2N)cc(OCC2CC2)c1-c1ccc(OCCO)cc1` [Example 55-, 2-[2′-Cyclopropylmethoxy-4′-(2,4-diamino-pyrimidin-5-ylmethyl)-6′-ethoxy-biphenyl-4-yloxy]-ethanol], the MIC [1, 5] was 4 µg/mL (≈ 8.88 µM), the MIC [2, 6] was 8 µg/mL (≈ 17.8 µM) and the pIC50 ([3]; Table 2) was 7.32. It also gave a pIC50 [4] of 5.77.

For `CCOc1cc(Cc2cnc(N)nc2N)cc(OC2CCC2)c1-c1ccc(O)cc1` [Example 08-k, 2′-Cyclobutoxy-4′-(2,4-diamino-pyrimidin-5-ylmethyl)-6′-ethoxy-biphenyl-4-ol], the MIC [1, 5] was 2 µg/mL (≈ 4.92 µM), the MIC [2, 6] was 4 µg/mL (≈ 9.84 µM) and the pIC50 ([3]; Table 2) was 7.37. For the same compound, the pIC50 [4] was 5.68.

`CCOc1cc(Cc2cnc(N)nc2N)cc(OS(=O)(=O)C(C)CC)c1-c1ccc(NCCO)cc1` (centres unmarked) [Example 35-f, Butane-2-sulphonic acid 4-(2,4-diamino-pyrimidin-5-ylmethyl)-6-ethoxy-4′-(2-hydroxy-ethylamino)-biphenyl-2-yl ester] gave an MIC [1, 5] of 0.5 µg/mL (≈ 0.97 µM), an MIC [2, 6] of 4 µg/mL (≈ 7.76 µM) and a pIC50 ([3]; Table 2) of 8.07. For the same compound, the pIC50 [4] was 6.92.
